Laboratory results reported in patent US20100144779A1, “Marine Alkalod Makaluvamines and Derivatives Thereof” (THE UAB RESEARCH FOUNDATION, priority 2007, published 2010).

Legend:
HCT-116 p53 −/− = assay: Cell cycle progression (propidium iodide, flow cytometry); format: cell-based, human; conditions: 48 hr; for G1 / G2/M / S: HCT-116 p53 −/−
Procedure: (§1) To determination of the effects of the disclosed compounds on the cell cycle, 2-3×10^5 cells were exposed to the test compounds (0-5 μM) and incubated for 48 hr prior to analysis (Table 6). Cells were trypsinized, washed with PBS and fixed in 1.5 mL 95% ethanol at 4° C. overnight, followed by incubation with RNAse and staining with propidium iodide (Sigma). The DNA content was determined by flow cytometry.

MCF7 = assay: as above; format: cell-based, human; conditions: 48 hr; for G1 / G2/M / S: MCF7
Procedure: as §1

How did the G1 (HCT-116 p53 −/−; 0.5 μM) turn out when `O=C(O)C(F)(F)F.O=C1C(NCc2ccc(F)cc2)=CC2=NCCc3c[nH]c1c32` [Compound 28] was run?
Its G1 is 28.18.

And the G2/M (HCT-116 p53 −/−; 0.5 μM)?
Its G2/M is 49.02.

And the S (HCT-116 p53 −/−; 0.5 μM)?
The S was 22.80.

What about the G1 (HCT-116 p53 −/−; 1 μM) of the same compound?
The G1 was 25.59.

And the G2/M (HCT-116 p53 −/−; 1 μM)?
Its G2/M is 45.20.

What about the S (HCT-116 p53 −/−; 1 μM) of the same compound?
Its S is 29.21.

And the cell cycle arrest (HCT-116 p53 −/−; colon cancer HCT116 p53−/−, dose-dependent)?
Its cell cycle arrest is “cell cycle arrest in the S and G2/M phase”.

What about the G1 (MCF7; 0.1 μM) of the same compound?
The G1 was 75.10.

What about the G2/M (MCF7; 0.1 μM) of the same compound?
The G2/M was 17.53.

And the S (MCF7; 0.1 μM)?
The S was 7.37.

And the G1 (MCF7; 0.5 μM)?
The G1 was 51.97.

And the G2/M (MCF7; 0.5 μM)?
The G2/M was 20.17.

And the S (MCF7; 0.5 μM)?
The S was 27.86.

What about the G1 (MCF7; 1 μM) of the same compound?
The G1 was 53.96.

What about the G2/M (MCF7; 1 μM) of the same compound?
The G2/M was 16.21.

What about the S (MCF7; 1 μM) of the same compound?
Its S is 29.82.

And the cell cycle arrest (MCF7; breast cancer (MCF-7), dose-dependent, 0-5 μM)?
The cell cycle arrest was “cell cycle arrest in the S phase”.
